Assay results: publication PMC10823475, “Design, Synthesis, and Evaluation of Inhibitors of Hedgehog Acyltransferase” (Journal of Medicinal Chemistry, 2024)
Values joined by “and” are separate entries in the source; they are usually repeats but may differ in a detail not shown here. Identical values can stand only once.

Legend:
[1] = Microsomal incubations, mouse liver microsomes; type: in vitro ADME; conditions: 1 μM
Method: (§1) Metabolic stability assays were performed using a Microlab Star liquid handling workstation (Hamilton Robotics, Bonaduz, Switzerland). Test compounds (1 μM, 1% DMSO) were preincubated at 37 °C for 10 min in 0.5 mg/mL female CD1 mouse and mixed gender human liver microsomes in 10 mM phosphate buffered saline (PBS; Sigma-Aldrich Company Ltd. (Dorset, UK)). Microsomes were purchased either from Sekisui XenoTech, LLC (Kansas City, USA) or BioreclamationIVT (Frankfurt Am Main, Germany). Reactions were initiated by the addition of NADPH (final concentration 1 mM). At 0, 15, and 30 min, aliquots were removed from each incubation and quenched in 3 volumes of ice-cold methanol containing olomoucine (Sigma-Aldrich, Dorset, UK) as an internal standard. […] The percentage metabolized was calculated by comparing peak area ratio (peak area test compound/peak area of internal standard) at t = 15 and 30 min versus t = 0 min.

[2] = system: HEK293a SHH+ cells; assay: MTS assay, cytotoxicity (72 h); type: cell-based
Procedure, shortened: (§2)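 Cells plated at 5000/well, cultured 24 h, then exposed to analogues (0.14–100 μM final) in DMEM/10% FBS for 72 h. MTS/PMS added for 3 h at 37 °C and absorbance read at 490 nm; data normalised to DMSO vehicle and puromycin (2 μg/mL) wells, curves fitted with a variable-slope sigmoidal model.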

[3] = MTS assay, cytotoxicity (72 h); type: cell-based; conditions: human, HEK293a SHH+ cells, 72 h; for CC50 at 72 h: read-out: MTS Assay (HEK293a SHH+) CC50 (CI95)
Procedure, shortened: as §2

[4] = Microsomal incubations, human liver microsomes; type: in vitro ADME; conditions: 1 μM
Method: as §1

[5] = biological target: T1, purified HHAT (Homo sapiens, UniProt Q5VTY9); assay: Acyl-cLIP assay, inhibition of purified HHAT; type: biochemical; conditions: for IC50: purified HHAT, read-out: Acyl-cLIP Assay IC50 (CI95)
T1 construct: made in house
Procedure, shortened: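 Percent inhibition was first taken at 50 μM and 25 μM, then IC50 derived from variable-slope dose-response curves of initial rate constants, normalized against DMSO and HHAT-free samples. Reaction: purified DDM-solubilized HHAT transfers palmitoyl from palmitoyl-CoA onto a FAM-SHH peptide (MES, pH 6.5), monitored 30 min by fluorescence anisotropy.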

[6] = PAMPA parallel artificial membrane permeability assay; conditions: for recovery at 16 h, 10 µM / Papp at 16 h, 10 μM: PAMPA
Method: (§3) Passive diffusion was estimated using the PAMPA method. […] The donor plate was a MultiScreen-IP Plate with 0.45 μm hydrophobe Immobilon-P Membrane (Millipore, #MAIPNTR10) and the acceptor plate was a MultiScreen 96-well Transport Receiver Plate (Millipore, #MATRNPS50). […] Acceptor pH was 7.4. All samples were analyzed against an external, matrix-matched, standard curve by LC-MS/MS with a Waters (Elstree, Herts. UK) Acquity H-class LC system coupled to a Waters TQ-S mass spectrometer. Permeability values (cm/s) were calculated using the following equation: [drawing 2] and VD = volume of donor; VA = volume of acceptor; area = surface area of the membrane · porosity.

[7] = in vitro; conditions: PAMPA
Method: as §3

[8] = pH 5, PAMPA Papp pH 5, donor pH 5, 10 µM
[9] = pH 5, PAMPA Permeability Class pH 5, donor pH 5, 10 µM
[10] = pH 6.5, PAMPA Papp pH 6.5, donor pH 6.5, 10 µM
[11] = pH 6.5, PAMPA Permeability Class pH 6.5, donor pH 6.5, 10 µM
[12] = pH 7.4, PAMPA Papp pH 7.4, donor pH 7.4, 10 µM

T1 sequence (Q5VTY9 whole entry): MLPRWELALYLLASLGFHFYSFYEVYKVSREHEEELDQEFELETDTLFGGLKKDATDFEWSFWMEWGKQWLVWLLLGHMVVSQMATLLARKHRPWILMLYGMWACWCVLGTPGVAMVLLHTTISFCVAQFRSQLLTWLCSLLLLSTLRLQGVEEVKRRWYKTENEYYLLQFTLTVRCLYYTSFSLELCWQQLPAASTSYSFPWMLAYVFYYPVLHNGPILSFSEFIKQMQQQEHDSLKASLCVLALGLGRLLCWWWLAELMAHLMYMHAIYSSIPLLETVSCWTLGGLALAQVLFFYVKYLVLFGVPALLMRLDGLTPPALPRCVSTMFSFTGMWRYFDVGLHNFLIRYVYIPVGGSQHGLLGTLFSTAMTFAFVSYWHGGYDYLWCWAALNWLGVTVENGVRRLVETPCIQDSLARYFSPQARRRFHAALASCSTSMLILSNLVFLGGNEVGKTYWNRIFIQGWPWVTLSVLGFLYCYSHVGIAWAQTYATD

Row | MLM % metabolized after 15 min [1] | MLM % metabolized after 30 min [1] [%] | HLM % metabolized after 15 min [4] [%] | HLM % metabolized after 30 min [4] [%] | inhibition at 25 µM [5] [%] | inhibition at 50 µM [5] [%] | IC50 [5] [µM] | recovery at 16 h, 10 µM ([6]; pH 5) [%] | Papp at 16 h, 10 μM [6, 8] [×10⁻⁶ cm/s] | Papp at 16 h, 10 μM [6, 9] [×10⁻⁶ cm/s] | recovery at 16 h, 10 µM ([6]; pH 6.5) [%] | Papp at 16 h, 10 μM [6, 10] [×10⁻⁶ cm/s] | Papp at 16 h, 10 μM [6, 11] [×10⁻⁶ cm/s] | recovery at 16 h, 10 µM ([6]; pH 7.4) [%] | Papp at 16 h, 10 μM [6, 12] [×10⁻⁶ cm/s] | PAMPA passive permeability ([6]; pH 7.4) | SMILES | CC50 at 72 h [3] [µM] | viability at 72 h, 12.5 µM [3] [%] | viability at 72 h, 25 µM [3] [%] | further results
1 | 100.0% and > 90% | 100.0 | 30.3 | 49.2 | 91 ± 5 | 95 ± 5 | 7.01 | 91 | 1.3 | < 5 | 45 | 24.4 | > 20 | 17 | 53.9 | high passive permeability | CCC(C)CNCC(=O)N1CCc2ccccc2C1c1ccccc1 (stereo not shown) [Compound 38, 2-((2-Methylbutyl)amino)-1-(1-phenyl-3,4-dihydroisoquinolin-2(1H)-yl)ethan-1-one] | 8.1 | 69 ± 4 | 33 ± 6 | toxicity to HEK293a SHH+ cells [2]: toxic; LLEAcyl-cLIP ([5]; from Acyl-cLIP IC50 and clogDpH7.4): 2.82
2 | – | – | – | – | – | – | – | – | – | – | – | – | – | – | – | – | Cc1cc(=O)n(-c2ccccc2)n1C [Antipyrine] | – | – | – | recovery at 16 h, 10 µM ([7]; pH 5): 109%; Papp at 16 h, 10 μM ([7]; pH 5, PAMPA Papp pH 5): 6.5 ×10⁻⁶ cm/s; Papp at 16 h, 10 μM ([7]; pH 5, PAMPA Permeability Class pH 5): 5 to 20 ×10⁻⁶ cm/s; recovery at 16 h, 10 µM ([7]; pH 6.5): 119%; Papp at 16 h, 10 μM ([7]; pH 6.5, PAMPA Papp pH 6.5): 6.6 ×10⁻⁶ cm/s; Papp at 16 h, 10 μM ([7]; pH 6.5, PAMPA Permeability Class pH 6.5): 5 to 20 ×10⁻⁶ cm/s; recovery at 16 h, 10 µM ([7]; pH 7.4): 145%; Papp at 16 h, 10 μM ([7]; pH 7.4, PAMPA Papp pH 7.4): 7.3 ×10⁻⁶ cm/s; Papp at 16 h, 10 μM ([7]; pH 7.4, PAMPA Permeability Class pH 7.4): 5 to 20 ×10⁻⁶ cm/s
3 | 94.6% and > 90% | 99.8 | 45.2 | 55.9 | 55 ± 7 | 53 ± 3 | > 25 | 95 | > 200 | > 20 | 92 | > 200 | > 20 | 89 | > 200 | high passive permeability | CC(=O)N1CCc2ccccc2C1c1ccccc1 (stereo not shown) [Compound 37, 1-(1-Phenyl-3,4-dihydroisoquinolin-2(1H)-yl)ethan-1-one] | 47.9 | 101 ± 5 | 94 ± 6 | CC50 ([2]; 72 h, read-out: MTS Assay (HEK293a SHH+) CC50 (CI95)): > 50 µM; Papp at 16 h, 10 μM ([6]; pH 7.4, PAMPA Permeability Class pH 7.4, donor pH 7.4, 10 µM): > 20 ×10⁻⁶ cm/s; PAMPA permeability ([6]; over the full pH range tested): high permeability
